This data set is described as follows: method code SF-AS, from Mayer, M.; Testa, B.; Van, H.; Bornand-Crausaz, A. (1982). Non-additivity amd intramolecular effects in the partition coefficient of omega-functionalized alkylpyridines. Eur J Med Chem, 17(5)453-459.

Broadly, the logP is the decadic logarithm of the partition coefficient of the neutral form, usually between octanol and water. For the compound `OCCCCc1cccnc1`, the logP came to 0.92.

As to `NCCc1ccccn1`, the logP came to 0.08.

On to `NCc1ccccn1`, for which the logP was -0.21.

In turn, `NCCc1cccnc1` came in with a logP of 0.

On to `OCCc1ccccn1`, for which the lipophilicity (logP) stood at 0.12. The logP values of the last two compounds are within 0.2 log units of each other.

Turning to `NCCCCCc1ccncc1`, the logP was 1.4.

With `NC(=O)CCCCc1cccnc1`, the logP came to 0.4.

On to `NCCCCCc1ccccn1`, for which the log partition coefficient (logP) came out at 1.32.

For `OCCCCc1ccccn1`, the logP is 0.86.

With `NCCCc1ccccc1`, the logP came out at 1.83.

In turn, `NCCCCc1ccccn1` registered a logP of 0.86.

In turn, `OCCc1cccnc1` had a log partition coefficient (logP) of 0.12.

For `NCCCc1ccncc1`, the logP is 0.4.

`NC(=O)CCc1cccnc1` displayed a lipophilicity (logP) of -0.26.

The compound `OCc1cccnc1` registered a logP of -0.02.

The compound `OCCCc1ccncc1` had a logP of 0.58.

In turn, `OCCCCCc1ccncc1` gave a log partition coefficient (logP) of 1.33.

In the case of `NCCc1ccncc1`, the logP was -0.01.

The compound `NC(=O)CCc1ccccn1` came in with a logP of -0.27.

In turn, `NCCCc1ccccn1` had a logP of 0.49.

For `NCCCCc1cccnc1`, the logP is 0.88.

Turning to `OCCCc1cccnc1`, the logP turned out to be 0.6.

Compound `NCCCCCc1cccnc1` came in with a log partition coefficient (logP) of 1.41.

Regarding `OCCCCc1ccncc1`, the logP was 0.9.

`NCCCc1cccnc1` yielded a lipophilicity (logP) of 0.44.

`NCCCCc1ccncc1`: the logP is 0.86.

`NC(=O)CCCCc1ccncc1` registered a logP of 0.42.

`NC(=O)CCc1ccncc1` showed a logP of -0.25.

Regarding `OCCCCCc1cccnc1`, the logP was 1.41.

`OCCCc1ccccn1` came in with a log partition coefficient (logP) of 0.58.

The compound `OCCc1ccncc1` registered a logP of 0.1.

In turn, `OCCCCCc1ccccn1` showed a lipophilicity (logP) of 1.28.

`NCc1ccncc1` came in with a logP of -0.38.

For `OCc1ccccn1`, the log partition coefficient (logP) was 0.06.

The values above are taken from the SangsterLogP compilation.
